Test [1] concerns LNCap. The test is described as follows: In vitro cell culture growth assay (MTS). The format is cell-based. The following applies: Homo sapiens, 72 h, prostate line LNCap, three days after drug treatment.
For test [2], the target named is PI3 Kinase γ (Homo sapiens, UniProt P48736). The test is described as follows: Fluorescence polarization assay for PI3K. The format is biochemical. On the procedure:
(§1) Fluorescence Polarization Assay for PI3K
(§2) This assay is used to determine the IC50 of compounds of the present invention as it identifies inhibitors of PI3 kinase by measuring inhibition.
(§3) Reaction Buffer: 20 mM HEPES, pH 7.5, 2 mM MgCl2, 0.05% CHAPS; and 0.01% BME (added fresh) Stop/Detection Buffer: 100 mM HEPES, pH 7.5, 4 mM EDTA, 0.05% CHAPS; ATP 20 mM in water; PIP2 (diC8, cat# P-4508) 1 mM in water (MW=856.5); GST-GRP 1.75 mg/mL or 1.4 mg/mL in 10% glycerol; Red detector (TAMRA) 2.5 μM; Plate: Nunc 384 well black polypropylene fluorescence plate.
(§4) The assay is run by placing 5 μL of diluted enzyme per well, then 5 μL of diluted compound (or 9.5 μL enzyme then 0.5 μL compound in DMSO) is added and mixed. Then, 10 μL substrate is added to start the reaction. The samples are incubated 30-60 minutes, then the reaction is stopped by adding 20 μL stop/detector mix. PI3K is diluted with reaction buffer (e.g., 5 μL or 7.5 μL PI3K into 620 μL reaction buffer), and 5 μL of diluted enzyme is used per well. 5 μL reaction buffer or drug diluted in buffer (e.g., 4 μL/100 so final DMSO is 1% in reaction) is added to each. Pipetting up and down mixes the samples. Alternatively, the enzyme can be diluted to 1215 μL. In this case 9.8 μL is added per well and 0.2 μL compound is added in DMSO. To prepare 1 mL of substrate solution, 955 μL reaction buffer, 40 μL PIP2, and 2.5 μL ATP are mixed. 10 μL of substrate is added to each well to start the reaction.
(§5) Stop/detector mix is prepared by mixing 4 μL Red detector and 1.6 μL or 2.0 μL GST-GRP with 1 mL Stop buffer, which results in 10 nM probe and 70 nM GST-GRP). 20 μL of the stop/detector mix is added to each well to stop the reaction. The plates are read after 30-90 minutes keeping the red probe solutions dark. For the zero time point, stop/detector mix is added to the enzyme just before adding substrate. For an extra control, stop/detector mix is added to buffer (no enzyme) and substrate or to just buffer (no substrate). […] The recommended reaction has 0.06 μL per 20 μL (0.015 μg/20 μL) or 0.01125 μg/15 μL or 0.75 μg/mL. Plates are read on machines with filters for Tamra. The units are mP with no enzyme controls reading app 190-220 mP units. Fully active enzyme reduces fluorescence polarization down to 70-100 mP after 30 minutes. An active compound raises the mP values halfway to control or to 120-150 mP units.
(Polarisation of emitted light reports the rotation of a fluorescent probe.)

In test [3] the target is PI3 Kinase α (Homo sapiens, UniProt P42336). Kind of test: Fluorescence polarization assay for PI3K. It counts as biochemical. Here is the method:
as §1, §2, §3, §4, §5

Test [4] has as its target T1, Human mTOR (Homo sapiens, UniProt P42345).
T1 construct: FLAG
Kind of test: mTOR kinase assay (DELFIA format, purified enzyme). To be noted: His6-S6K substrate, read-out: TOR Kinase IC50. The format is biochemical. On the procedure: mTOR Kinase Assay Methods
Human mTOR assays (See Toral-Barza, et al. Biochem Biophys. Res. Commun. 2005 Jun. 24; 332(1):304-10) with purified enzyme are performed in 96-well plates by DELFIA format as follows. Enzymes are first diluted in kinase assay buffer (10 mM HEPES (pH 7.4), 50 mM NaCl, 50 mM β-glycerophosphate, 10 mM MnCl2, 0.5 mM DTT, 0.25 mM microcystin LR, and […]). To each well, 12 μL of the diluted enzyme is mixed briefly with 0.5 μL test inhibitor or control vehicle dimethylsulfoxide (DMSO). The kinase reaction is initiated by adding 12.5 μL kinase assay buffer containing ATP and His6-S6K to give a final reaction volume of 25 μL containing 800 ng/mL FLAG-TOR, […] and […]. The reaction plate is incubated for 2 hours (linear at 1-6 hours) at room temperature with gentle shaking and then terminated by adding 25 μL Stop buffer (20 mM HEPES (pH 7.4), 20 mM EDTA, 20 mM EGTA). The DELFIA detection of the phosphorylated (Thr-389) His6-S6K is performed at room temperature using a monoclonal anti-P(T389)-p70S6K antibody (1A5, Cell Signaling) labeled with Europium-N1-ITC (Eu) (10.4 Eu per antibody, PerkinElmer). The DELFIA Assay buffer and Enhancement solution can be purchased from PerkinElmer. 45 μL of the terminated kinase reaction mixture is transferred to a MaxiSorp plate (Nunc) containing 55 μL PBS. The His6-S6K is allowed to attach for 2 hours after which the wells are aspirated and washed once with PBS. 100 μL of DELFIA Assay buffer with 40 ng/mL Eu-P(T389)-S6K antibody is added. The antibody binding is continued for 1 hour with gentle agitation. The wells are then aspirated and washed 4 times with PBS containing 0.05% Tween-20 (PBST). 100 μL of DELFIA Enhancement solution is added to each well and the plates are read in a PerkinElmer Victor model plate reader. Data obtained is used to calculate enzymatic activity and enzyme inhibition by potential inhibitors.

For test [5], the system named is MDA468. The test is described as follows: In vitro cell culture growth assay (MTS). The format is cell-based. To be noted: Homo sapiens, 72 h, breast line MDA468, three days after drug treatment. Here is the method: In Vitro Cell Culture Growth Assay Methods:
Human tumor cell lines used include prostate lines LNCap and PC3MM2, breast lines MDA468, MCF7, renal line HTB44 (A498), colon line HCT116, and ovarian line OVCAR3. Cells were plated in 96-well culture plates. One day following plating, the inhibitors were added to cells. Three days after drug treatment, viable cell densities were determined by metabolic conversion (by viable cells) of the dye MTS, a well-established cell proliferation assay. The assays were performed using an assay kit purchased from Promega Corp. (Madison, Wis.) following the protocol supplied with the kit. The MTS assay results were read in a 96-well plate reader by measuring absorbance at 490 nm. The effect of each treatment was calculated as percent of control growth relative to the vehicle-treated cells grown in the same culture plate. The drug concentration that conferred 50% inhibition of growth was determined as IC50 (μg/ml).

Chain of PI3 Kinase γ (P48736 whole entry): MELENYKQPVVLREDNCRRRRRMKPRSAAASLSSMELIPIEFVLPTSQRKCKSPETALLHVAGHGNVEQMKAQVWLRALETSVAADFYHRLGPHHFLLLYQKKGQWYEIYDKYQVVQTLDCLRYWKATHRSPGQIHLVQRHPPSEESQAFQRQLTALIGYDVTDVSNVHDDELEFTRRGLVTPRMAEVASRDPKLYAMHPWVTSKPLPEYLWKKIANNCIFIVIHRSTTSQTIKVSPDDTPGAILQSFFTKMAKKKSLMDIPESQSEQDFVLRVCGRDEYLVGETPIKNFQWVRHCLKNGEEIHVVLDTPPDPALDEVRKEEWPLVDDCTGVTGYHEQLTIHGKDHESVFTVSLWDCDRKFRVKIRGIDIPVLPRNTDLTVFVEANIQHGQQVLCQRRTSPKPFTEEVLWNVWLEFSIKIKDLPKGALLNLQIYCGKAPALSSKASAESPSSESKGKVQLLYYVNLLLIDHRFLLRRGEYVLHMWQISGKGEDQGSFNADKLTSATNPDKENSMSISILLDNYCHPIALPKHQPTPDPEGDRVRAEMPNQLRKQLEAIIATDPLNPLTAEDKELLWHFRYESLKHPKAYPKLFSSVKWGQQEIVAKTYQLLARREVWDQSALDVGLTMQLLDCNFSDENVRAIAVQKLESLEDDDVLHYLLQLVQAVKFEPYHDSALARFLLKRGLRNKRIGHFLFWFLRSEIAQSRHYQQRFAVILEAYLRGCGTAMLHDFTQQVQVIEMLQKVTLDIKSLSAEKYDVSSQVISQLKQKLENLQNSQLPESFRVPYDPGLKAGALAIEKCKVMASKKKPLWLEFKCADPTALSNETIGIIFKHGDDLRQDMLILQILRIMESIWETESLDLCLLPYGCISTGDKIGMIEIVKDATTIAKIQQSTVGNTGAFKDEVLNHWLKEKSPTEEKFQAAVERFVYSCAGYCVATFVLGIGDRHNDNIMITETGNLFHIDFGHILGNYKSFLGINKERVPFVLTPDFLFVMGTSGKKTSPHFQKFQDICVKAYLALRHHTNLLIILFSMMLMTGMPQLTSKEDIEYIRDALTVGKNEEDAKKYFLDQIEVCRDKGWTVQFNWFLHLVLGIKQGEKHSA
Chain of PI3 Kinase α (P42336 whole entry): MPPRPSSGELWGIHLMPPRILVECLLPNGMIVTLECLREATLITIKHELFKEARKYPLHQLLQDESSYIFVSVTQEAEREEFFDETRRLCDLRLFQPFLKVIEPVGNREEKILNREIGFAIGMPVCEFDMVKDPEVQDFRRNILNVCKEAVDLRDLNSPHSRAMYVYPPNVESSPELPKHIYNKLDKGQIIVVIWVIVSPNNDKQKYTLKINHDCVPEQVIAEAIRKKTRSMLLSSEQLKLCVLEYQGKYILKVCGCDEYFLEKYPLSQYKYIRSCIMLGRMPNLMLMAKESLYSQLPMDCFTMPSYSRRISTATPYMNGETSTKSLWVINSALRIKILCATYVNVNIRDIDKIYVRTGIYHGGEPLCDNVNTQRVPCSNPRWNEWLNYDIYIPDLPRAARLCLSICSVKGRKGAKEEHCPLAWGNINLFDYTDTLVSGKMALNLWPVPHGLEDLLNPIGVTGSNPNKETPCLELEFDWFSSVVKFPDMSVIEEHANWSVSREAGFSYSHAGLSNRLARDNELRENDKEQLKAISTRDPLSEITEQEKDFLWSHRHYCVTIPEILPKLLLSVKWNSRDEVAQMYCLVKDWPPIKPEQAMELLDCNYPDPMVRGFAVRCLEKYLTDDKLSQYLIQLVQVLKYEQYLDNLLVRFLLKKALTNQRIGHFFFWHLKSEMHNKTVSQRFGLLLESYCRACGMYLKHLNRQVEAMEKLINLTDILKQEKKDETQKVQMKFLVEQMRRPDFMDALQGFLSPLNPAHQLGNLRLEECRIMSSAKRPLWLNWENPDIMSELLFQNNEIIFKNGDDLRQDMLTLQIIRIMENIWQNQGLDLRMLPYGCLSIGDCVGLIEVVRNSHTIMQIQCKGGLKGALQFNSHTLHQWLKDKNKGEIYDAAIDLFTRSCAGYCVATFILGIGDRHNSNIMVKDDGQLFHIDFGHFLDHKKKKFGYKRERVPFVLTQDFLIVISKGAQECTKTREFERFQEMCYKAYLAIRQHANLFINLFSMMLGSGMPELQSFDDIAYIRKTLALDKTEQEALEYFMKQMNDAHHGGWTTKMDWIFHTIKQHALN
Chain of PI3 Kinase α (P27986 whole entry partner): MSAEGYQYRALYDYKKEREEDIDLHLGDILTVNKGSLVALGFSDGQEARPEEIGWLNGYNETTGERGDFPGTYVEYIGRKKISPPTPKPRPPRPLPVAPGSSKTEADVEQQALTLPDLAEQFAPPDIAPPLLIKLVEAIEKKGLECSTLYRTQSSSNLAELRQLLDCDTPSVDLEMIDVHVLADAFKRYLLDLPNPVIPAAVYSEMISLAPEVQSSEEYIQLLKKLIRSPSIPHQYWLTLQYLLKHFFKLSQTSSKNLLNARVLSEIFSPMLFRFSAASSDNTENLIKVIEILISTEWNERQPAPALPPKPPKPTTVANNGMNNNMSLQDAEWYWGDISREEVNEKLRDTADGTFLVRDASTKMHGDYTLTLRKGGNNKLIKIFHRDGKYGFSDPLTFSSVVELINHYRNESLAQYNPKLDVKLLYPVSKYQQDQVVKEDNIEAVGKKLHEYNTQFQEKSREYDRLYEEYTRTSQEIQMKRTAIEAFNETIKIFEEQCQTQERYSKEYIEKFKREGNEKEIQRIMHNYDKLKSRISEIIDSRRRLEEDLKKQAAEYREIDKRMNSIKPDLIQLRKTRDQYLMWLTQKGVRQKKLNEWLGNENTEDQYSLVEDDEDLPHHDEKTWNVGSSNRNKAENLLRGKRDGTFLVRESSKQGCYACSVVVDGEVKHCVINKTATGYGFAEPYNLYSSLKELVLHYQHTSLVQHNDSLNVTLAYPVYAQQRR

Take `CCNC(=O)Nc1ccc(-c2nc(C3=CCOCC3)c3cnn(CC(F)(F)F)c3n2)cc1` [Compound 10, 1-{4-[4-(3,6-dihydro-2H-pyran-4-yl)-1-(2,2,2-trifluoroethyl)-1H-pyrazolo[3,4-d]pyrimidin-6-yl]phenyl}-3-ethylurea]: the IC50 in test [1] was 210 nM; in test [2] it was more than 10000 nM; in test [3], 851 nM; in test [4] it was 2.4 nM; in test [5], 680 nM.

Take `CNC(=O)Nc1ccc(-c2nc(C3=CCOCC3)c3cnn(C4CCN(C(=O)c5cccnc5)CC4)c3n2)cc1` [Compound 5, 1-(4-{4-(3,6-dihydro-2H-pyran-4-yl)-1-[1-(pyridin-3-ylcarbonyl)piperidin-4-yl]-1H-pyrazolo[3,4-d]pyrimidin-6-yl}phenyl)-3-methylurea]: the IC50 in test [1] stood at 2800 nM; in test [2] it was 1180 nM; in test [3], 2100 nM; in test [4], 8.4 nM; in test [5], 4000 nM.

`O=C(Nc1ccc(-c2nc(C3=CCOCC3)c3cnn(CC(F)(F)F)c3n2)cc1)Nc1cccnc1` [Compound 8, 1-{4-[4-(3,6-dihydro-2H-pyran-4-yl)-1-(2,2,2-trifluoroethyl)-1H-pyrazolo[3,4-d]pyrimidin-6-yl]phenyl}-3-pyridin-3-ylurea]: the half-maximal inhibitory concentration (IC50) in test [1] was 380 nM; in test [2], more than 10000 nM; in test [3] it was 66 nM; in test [4], 0.75 nM; in test [5], 7000 nM.

With `O=C(NCCF)Nc1ccc(-c2nc(C3=CCOCC3)c3cnn(CC(F)(F)F)c3n2)cc1` [Compound 7, 1-{4-[4-(3,6-dihydro-2H-pyran-4-yl)-1-(2,2,2-trifluoroethyl)-1H-pyrazolo[3,4-d]pyrimidin-6-yl]phenyl}-3-(2-fluoroethyl)urea], the IC50 in test [1] was found to be 72 nM; in test [2], 1010 nM; in test [3], 2330 nM; in test [4], 1.4 nM; in test [5], 220 nM.

Consider `Oc1cccc(-c2nc(C3=CCOCC3)c3cnn(-c4ccccc4)c3n2)c1` [Compound 1, 3-[4-(3,6-dihydro-2H-pyran-4-yl)-1-phenyl-1H-pyrazolo[3,4-d]pyrimidin-6-yl]phenol], for which the IC50 in test [1] was determined as 2800 nM; in test [2], 1890 nM; in test [3], 48 nM; in test [4], 17 nM; in test [5], 8250 nM.

Turning to `O=c1[nH]c2nc(-c3cccc(O)c3)nc(C3=CCOCC3)c2[nH]1` [Compound 67, 6-(3,6-dihydro-2H-pyran-4-yl)-2-(3-hydroxyphenyl)-7,9-dihydro-8H-purin-8-one], the IC50 in test [2] was 414 nM; in test [3], 169 nM; in test [4], 280 nM; in test [5], more than 10000 nM.

Regarding `Oc1cccc(-c2nc(C3CCOCC3)c3cnn(-c4ccccc4)c3n2)c1` [Compound 2, 3-[1-phenyl-4-(tetrahydro-2H-pyran-4-yl)-1H-pyrazolo[3,4-d]pyrimidin-6-yl]phenol], the IC50 is 11000 nM in test [1]; more than 10000 nM in test [2]; 855 nM in test [3]; 670 nM in test [4]; 50000 nM in test [5].

Turning to `CNC(=O)Nc1ccc(-c2nc(C3=CCOCC3)c3cnn(C4CCN(Cc5cccnc5)CC4)c3n2)cc1` [Compound 4, 1-(4-{4-(3,6-dihydro-2H-pyran-4-yl)-1-[1-(pyridin-3-ylmethyl)piperidin-4-yl]-1H-pyrazolo[3,4-d]pyrimidin-6-yl}phenyl)-3-methylurea], the IC50 amounted to 900 nM in test [1]; 3220 nM in test [2]; 2820 nM in test [3]; 17 nM in test [4]; 4200 nM in test [5].

Regarding `CC(=O)Nc1ccc(-c2nc(C3=CCOCC3)c3cnn(C4CCN(Cc5ccccc5)CC4)c3n2)cc1` [Compound 3, N-{4-[1-(1-benzylpiperidin-4-yl)-4-(3,6-dihydro-2H-pyran-4-yl)-1H-pyrazolo[3,4-d]pyrimidin-6-yl]phenyl}acetamide], the IC50 is 5000 nM in test [1]; 3020 nM in test [2]; 3090 nM in test [3]; 230 nM in test [4]; 11000 nM in test [5].

For `Oc1cccc(-c2nc(C3=CCOCC3)c3nc[nH]c3n2)c1` [Compound 11, 3-[6-(3,6-dihydro-2H-pyran-4-yl)-9H-purin-2-yl]phenol], the half-maximal inhibitory concentration (IC50) in test [2] was determined as 1250 nM; in test [3] it was 85 nM; in test [4], 1400 nM.

For the compound `Nc1ncccc1CN1CCC(n2cnc3c(C4=CCOCC4)nc(-c4cncc(O)c4)nc32)CC1` [Compound 34, 5-[9-{1-[(2-aminopyridin-3-yl)methyl]piperidin-4-yl}-6-(3,6-dihydro-2H-pyran-4-yl)-9H-purin-2-yl]pyridin-3-ol], the values for the half-maximal inhibitory concentration (IC50) in test [2], in test [3] and in test [4] were 1500 nM, 526 nM and 13000 nM, respectively.

On to `OCc1cccc(-c2nc(C3=CCOCC3)c3ncn(C4CCN(Cc5ccc(Br)nc5)CC4)c3n2)c1` [Compound 25, {3-[9-{1-[(6-bromopyridin-3-yl)methyl]piperidin-4-yl}-6-(3,6-dihydro-2H-pyran-4-yl)-9H-purin-2-yl]phenyl}methanol], for which the figures for the IC50 in test [2], in test [3] and in test [4] were 1340 nM, 228 nM and 890 nM, respectively.

As to `Oc1cncc(-c2nc(C3=CCOCC3)c3ncn(C4CCN(Cc5ccccn5)CC4)c3n2)c1` [Compound 31, 5-{6-(3,6-dihydro-2H-pyran-4-yl)-9-[1-(pyridin-2-ylmethyl)piperidin-4-yl]-9H-purin-2-yl}pyridin-3-ol], the half-maximal inhibitory concentration (IC50) in test [2] amounted to 2990 nM; in test [3], 619 nM; in test [4], 1600 nM.

By IC50 is commonly meant the concentration that inhibits the measured activity by half.

Source of the values: US20090192176A1, “1H-PYRAZOLO[3,4-D]PYRIMIDINE, PURINE, 7H-PURIN-8(9H)-ONE, 3H-[1,2,3]TRIAZOLO[4,5-D]PYRIMIDINE, AND THIENO[3,2-D]PYRIMIDINE COMPOUNDS, THEIR USE AS mTOR KINASE AND PI3 KINASE INHIBITORS, AND THEIR SYNTHESES” (Wyeth, priority 2008, published 2009).
